Several values for one entry are separate records, joined by “and”; a condition that tells them apart may be missing. Equal values may be shown once. Activity calls are given as the source filed them.

One data set addresses T1, Progesterone receptor (Homo sapiens, UniProt P06401).
T1 sequence (P06401 whole entry): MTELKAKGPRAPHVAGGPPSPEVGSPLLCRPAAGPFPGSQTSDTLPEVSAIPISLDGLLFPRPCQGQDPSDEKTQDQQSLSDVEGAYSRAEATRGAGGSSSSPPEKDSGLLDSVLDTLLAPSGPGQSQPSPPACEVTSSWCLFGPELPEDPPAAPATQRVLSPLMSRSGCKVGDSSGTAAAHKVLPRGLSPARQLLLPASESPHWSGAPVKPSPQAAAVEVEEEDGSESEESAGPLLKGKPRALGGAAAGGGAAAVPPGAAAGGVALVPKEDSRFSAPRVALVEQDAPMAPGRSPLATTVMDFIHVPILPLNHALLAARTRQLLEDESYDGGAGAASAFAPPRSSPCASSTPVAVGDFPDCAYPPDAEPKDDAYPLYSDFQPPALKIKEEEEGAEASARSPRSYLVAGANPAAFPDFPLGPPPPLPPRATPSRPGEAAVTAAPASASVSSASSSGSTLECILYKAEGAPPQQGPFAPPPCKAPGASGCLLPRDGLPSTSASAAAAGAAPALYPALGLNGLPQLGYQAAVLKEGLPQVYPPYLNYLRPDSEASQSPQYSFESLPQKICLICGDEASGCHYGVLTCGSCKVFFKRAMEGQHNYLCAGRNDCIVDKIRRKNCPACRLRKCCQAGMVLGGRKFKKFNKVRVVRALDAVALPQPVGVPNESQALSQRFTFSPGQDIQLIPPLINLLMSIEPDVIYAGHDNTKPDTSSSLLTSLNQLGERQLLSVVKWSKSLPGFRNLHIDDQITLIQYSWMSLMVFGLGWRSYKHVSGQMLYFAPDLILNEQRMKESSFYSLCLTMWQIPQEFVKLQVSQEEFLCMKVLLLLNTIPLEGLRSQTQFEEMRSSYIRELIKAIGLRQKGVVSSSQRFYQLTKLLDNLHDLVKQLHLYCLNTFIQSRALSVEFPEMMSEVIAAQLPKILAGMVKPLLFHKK
Put plainly: Inhibition of human progesterone receptor.

Data set [1] has as its target T2, Glucocorticoid receptor (Homo sapiens) (UniProt P04150).
T2 sequence (whole entry): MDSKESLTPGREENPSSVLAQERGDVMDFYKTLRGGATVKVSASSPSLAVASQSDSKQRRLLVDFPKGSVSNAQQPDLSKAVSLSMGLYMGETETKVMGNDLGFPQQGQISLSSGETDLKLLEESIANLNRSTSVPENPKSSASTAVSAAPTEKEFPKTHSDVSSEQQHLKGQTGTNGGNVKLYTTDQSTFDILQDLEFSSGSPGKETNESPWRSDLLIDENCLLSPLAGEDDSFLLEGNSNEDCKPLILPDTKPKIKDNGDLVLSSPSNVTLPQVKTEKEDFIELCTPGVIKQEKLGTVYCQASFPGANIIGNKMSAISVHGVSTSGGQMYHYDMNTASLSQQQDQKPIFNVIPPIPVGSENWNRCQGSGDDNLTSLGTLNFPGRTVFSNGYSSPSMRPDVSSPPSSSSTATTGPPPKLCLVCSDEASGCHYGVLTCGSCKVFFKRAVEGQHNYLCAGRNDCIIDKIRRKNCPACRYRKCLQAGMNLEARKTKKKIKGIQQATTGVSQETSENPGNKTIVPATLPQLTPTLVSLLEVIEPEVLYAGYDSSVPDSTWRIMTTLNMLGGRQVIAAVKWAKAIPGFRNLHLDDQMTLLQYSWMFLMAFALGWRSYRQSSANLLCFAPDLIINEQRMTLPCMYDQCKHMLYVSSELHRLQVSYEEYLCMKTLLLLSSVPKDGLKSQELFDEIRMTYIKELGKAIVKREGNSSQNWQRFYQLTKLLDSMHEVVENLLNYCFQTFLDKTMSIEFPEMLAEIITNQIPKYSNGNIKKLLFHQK
To be noted: Huh-7.

Data set [2] concerns the target T3, Glucocorticoid receptor (Homo sapiens, UniProt P04150).
T3 sequence (P04150 whole entry): T2 sequence (whole entry)

Data set [3] concerns the target T3, Glucocorticoid receptor. Put plainly: Antagonistic activity against 5 nM Dexamethasone induced glucocorticoid receptor mediated alkaline phosphatase activity. The format is functional.
Data set [4] is described as follows: Liver levels in ob/ob mice after 14 days of oral dose at 100 mpk b.i.d. The format is ADME, tissue-based. To be noted: mouse, in vivo, 100 mg/kg, 336 h.
Data set [5] can be described thus: Glycogen levels in ob/ob mice after 14 days of oral dose at 100 mpk b.i.d. Type of data set: ADME. To be noted: mouse, in vivo, 100 mg/kg, 336 h.
A short description of data set [6]: Glucose levels in ob/ob mice after 13 days of oral dose at 100 mpk b.i.d. To be noted: mouse, in vivo, 100 mg/kg, 312 h. The format is ADME.
Data set [7] in a line: Alanine aminotransferase (ALT) levels in ob/ob mice after 13 days of oral dose at 100 mpk b.i.d. To be noted: mouse, in vivo, 100 mg/kg, 312 h. The format is ADME.
Data set [8] in a line: Free fatty acid (FFA) levels in ob/ob mice after 14 days of oral dose at 100 mpk b.i.d. The format is ADME. To be noted: mouse, in vivo, 100 mg/kg, 336 h.
For data set [9], the species on record is Mus musculus. The data set can be described thus: Initial weight of the ob/ob mice before oral treatment at 100 mpk b.i.d. for 13 days. The format is functional.
Data set [10] in a line: Insulin levels in ob/ob mice after 14 days of oral dose at 100 mpk b.i.d. The format is ADME. To be noted: mouse, in vivo, 100 mg/kg, 336 h.
A short description of data set [11]: Free fatty acid (FFA) levels in ob/ob mice after 13 days of oral dose at 100 mpk b.i.d. The format is ADME. To be noted: mouse, in vivo, 100 mg/kg, 312 h.
The species named for data set [12] is Mus musculus. Put plainly: Final weight of the ob/ob mice after 13 days of oral treatment at 100 mpk b.i.d. The format is functional.
Data set [13] can be described thus: Half life period of the compound in rat liver microsomes was determined. Type of data set: ADME, Microsome. A general note: Microsomes from liver hold many membrane-bound enzymes, among them those of drug oxidation.
Data set [14] concerns Rattus norvegicus. Put plainly: Reduction of progesterone levels in pregnant rats after q.d. oral dosing at 3 mpk. Type of data set: functional.
A short description of data set [15]: Aspartate aminotransferase (AST) levels in ob/ob mice after 13 days of oral dose at 100 mpk b.i.d. Type of data set: ADME. To be noted: mouse, in vivo, 100 mg/kg, 312 h.
Data set [16] can be described thus: Glucose levels in ob/ob mice after 14 days of oral dose at 100 mpk b.i.d. The format is ADME. To be noted: mouse, in vivo, 100 mg/kg, 336 h.
A short description of data set [17]: Insulin levels in ob/ob mice after 13 days of oral dose at 100 mpk b.i.d. To be noted: mouse, in vivo, 100 mg/kg, 312 h. Type of data set: ADME.
Data set [18] in a line: Half life period of the compound in rat hepatocytes was determined. The format is ADME, cell-based, Liver, Hepatocyte.
Data set [19] is described as follows: Cholesterol levels in ob/ob mice after 14 days of oral dose at 100 mpk b.i.d. The format is ADME. To be noted: mouse, in vivo, 100 mg/kg, 336 h.
The subject of data set [20] is Rattus norvegicus. Put plainly: Reduction of uterine weight in pregnant rats after q.d. oral dosing at 3 mpk. Type of data set: functional.
The species entered for data set [21] is Mus musculus. Put plainly: Initial weight of the ob/ob mice before oral treatment at 100 mpk b.i.d. for 14 days. The format is functional.

With `Cc1c(NS(C)(=O)=O)cccc1N(Cc1ccc(Oc2ccc(Br)c(OCC(=O)O)c2)cc1)Cc1ccc(F)cc1F`, the figures for the IC50 against Progesterone receptor, against Glucocorticoid receptor [2] and at Glucocorticoid receptor [3] were 140 nM, 1.8 nM and 330 nM, respectively. Also, in data set [1], the Agonistic activity result was “inactive”.
As to `CC#C[C@]1(O)CC[C@H]2[C@@H]3CCC4=CC(=O)CCC4=C3[C@@H](c3ccc(N(C)C)cc3)C[C@@]21C` [MIFEPRISTONE], the Level in data set [4] is 1.8 nmol of pHB/min/mg of protein; in data set [5], 30.5 mg/gof liver; in data set [6] it was 1410 µg/mL; in [7], 1110 units/mL; in [8], 0.84 mequiv/L; in data set [10], 0.014 µg/mL. Besides, the Level was found to be 1.5 mequiv/L in data set [11]; 310 units/mL in data set [15]; 1700 µg/mL in data set [16]; 0.0075 µg/mL in data set [17]; 3660 µg/mL in [19]. Also, the Weight in the data set listed under Mus musculus [9] was 46.1 g; in the data set listed under Mus musculus [12], 48.2 g and 51.2 g; in the data set listed under Mus musculus [21], 41.7 g. Besides, the half-life in data set [13] was under 19.8 min; in [18] it was under 6 min. Besides, the Reduction in the data set on Rattus norvegicus [14] and with Rattus norvegicus [20] was 50% throughout.

In general, IC50 refers to the concentration needed to halve the response being measured. By half-life is commonly meant the time needed for the level to fall by half in the phase considered. Read a high half-life as slow loss.

Values taken from ChEMBL document CHEMBL1141148, “Antidiabetic activity of passive nonsteroidal glucocorticoid receptor modulators” (J Med Chem, 2005).
